From patent US20230240290A1, “USE OF (Z)-3-HEXENYL ESTERS AND METHOD FOR PROTECTING PLANTS AGAINST PESTS” (UNIVERSITAT POLITÈCNICA DE VALÈNCIA, priority 2020, published 2023)

Legend:
[1] = test system: SI-PI-II (marker for plant proteinase inhibitors); test: Transcriptional response of SI-PI-II in tomato plants exposed to volatiles (laboratory); assay type: in vivo, Solanum lycopersicum cv. Moneymaker; settings: intact tomato plants exposed 24 h; filter paper, 1:10,000 ester:methanol; n=8
Description: Moneymaker tomato plants were used. Two weeks after seed germination, the seedlings were individually transplanted into pots (8×8×8 cm). The plants were kept at 25±2° C., with a constant relative humidity of 65%±5% and a 14:10 h (light:dark) photoperiod. Tomato plants that had not received any pesticide treatment at four weeks of age (about 20 cm tall) were used. All volatiles used were obtained from Sigma-Aldrich (St. Louis, Mo., USA). Each volatile was exposed by using a 2×2 cm piece of filter paper on which 10 μl of a solution containing the corresponding volatile at a concentration of 1:10,000 [(Z)-3-hexenyl ester:methanol] was impregnated as an emitting source of the corresponding volatile (Pérez-Hedo, M. et al. Biocontrol, 63: 203-213 (2018)).
To activate a plant, two pieces of filter paper impregnated with the volatile were placed at the bottom of a 30×30×30 cm plastic cage (BugDorm-1 Insect Tents; MegaView Science Co., Ltd, Taichung, Taiwan) into which the plant was introduced. A control treatment was carried out in which the two pieces of filter paper were impregnated with 10 μl of methanol. Eight repetitions per treatment were performed. The plants of the treatments were kept exposed to the volatile without disturbing for 24 hours in separate and isolated climatic chambers to avoid any interference from the volatiles and were kept at 25±2° C., 65±10% RH, and a 14:10 h (L:D) photoperiod. […]
The methodology followed for extracting and quantifying gene expression was described by Pérez-Hedo et al. Journal of Pest Science 3: 543-554 (2015). The primers used were forward primer: 5′-[…]-3′ (SEQ ID NO: 1) and reverse primer: 5′-[…]-3′ (SEQ ID NO: 2) for the quantification of PR1, forward primer: 5′-[…]-3′ (SEQ ID NO: 3) and reverse primer: 5′-[…]-3′ (SEQ ID NO: 4) for SI-PI-I, and forward primer: 5′-[…]-3′ (SEQ ID NO: 5) and reverse primer: 5′-[…]-3′ (SEQ ID NO: 6) for the SI-PI-II gene. […]

[2] = test system: PAL (salicylic acid pathway); test: Transcriptional response of PAL in Carrizo citrange plants exposed to the volatile; assay type: in vivo; settings: intact Carrizo citrange plants exposed 24 h; n=6
Description: Two weeks after seed germination, the seedlings were individually transplanted into pots (8×8×8 cm). The plants were kept in a greenhouse with a plastic cover at approximate climatic conditions of 25±5° C., a relative humidity of 65%±5%, and a natural light photoperiod, about 14:10 h (light:dark). Carrizo citrange plants that had not received any pesticide treatment at 8 weeks of age (approximately 20 cm tall) were used. The volatile (Z)-3-hexenyl propanoate was obtained from Sigma-Aldrich (St. Louis, Mo., USA). The volatile was exposed by using a 2×2 cm piece of filter paper on which 10 μl of a solution containing the corresponding volatile at a concentration of 1:10,000 [(Z)-3-hexenyl propanoate:methanol] was impregnated as an emitting source of the corresponding volatile (Pérez-Hedo, M. et al. Biocontrol, 63: 203-213 (2018)). […]
The methodology followed for the extraction and quantification of gene expression was described by Pérez-Hedo et al. Journal of Pest Science 3: 543-554 (2015). The primers used were forward primer: 5′-[…]-3′ (SEQ ID NO: 11) and reverse primer: 5′-[…]-3′ (SEQ ID NO: 12) for the quantification of LOX2, forward primer: 5′-[…]-3′ (SEQ ID NO: 13) and reverse primer: 5′-[…]-3′ (SEQ ID NO: 14) for PAL and forward primer: 5′-[…]-3′ (SEQ ID NO: 15) and reverse primer: 5′-[…]-3′ (SEQ ID NO: 16) for the NPR5 gene. […]

CC/C=C\CCOC(=O)CC [(Z)-3-hexenyl propanoate]
Transcriptional response of SI-PI-II compared to the control [1]: significantly overexpressed | Transcriptional response of PAL compared to control [2]: significantly overexpressed
